Literature values as cited in patent US6426407B1, “Residues for binding third strands to complementary nucleic acid duplexes of any base pair sequence” (Codon Pharm., priority 1995, dated 2002).

Columns and labels:
[1] = tested on: homopolymer GC duplexes, homopolymer AT duplexes, and mixed base-pair duplexes with alternating AG in the center strand
Wherever third strand base complementary to center strand purine is given: key: a '+' means the bases are complementary or correspondent; a '−' means they are not complementary or not correspondent.

| Structure (SMILES) | third strand base complementary to center strand purine (center strand purine A) | third strand base complementary to center strand purine (center strand purine G) | triplex formation [1] |
| --- | --- | --- | --- |
| Nc1ncnc2nc[nH]c12 [A, adenine] | + | − |  |
| Nc1cc[nH]c(=O)n1 [C, cytosine] | − | + |  |
| Nc1nc2nc[nH]c2c(=O)[nH]1 [G, guanine] | − | + |  |
| OC[C@H]1O[C@@H](n2cnc3c(O)ncnc32)[C@H](O)[C@@H]1O [I, inosine] | + | + | forms triplexes |
